Data from US7803801B2, “Aminopyridine compounds having Syk inhibitory activity” (Japan Tobacco, Inc., priority 2005, dated 2010).
Counter-ions that a name gives are not always drawn. Like-named read-outs stand apart in the source and are kept apart here.

Assays:
[1] = test system: cultured human mast cells; test: Degranulation inhibition test using cultured human mast cells (IgE cross-linking, β-Hexosaminidase release); assay type: cell-based; settings: Mast cell, cultured human mast cells, read-out: human degranulation ave. IC50
Outline: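 Degranulation was triggered by anti-hIgE (10 μg/mL final, 30 min, 37 °C) after a 10-min compound pretreatment (DMSO 0.1%) of cord-blood CD34+-derived mast cells primed 5 days with IL-4 and IgE. β-Hexosaminidase in supernatant was measured with p-nitrophenyl-GlcNAc substrate (A405), expressed against water-lysed total; IC50 (M).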

[2] = target: GST-Syk Full Protein (human) (Homo sapiens, UniProt P43405); test: Syk kinase inhibition test (HTRF method); assay type: biochemical
Outline: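 HTRF read-out: after EDTA termination and 1 h with XL665-streptavidin and Eu-anti-phosphotyrosine, the 665/620 nm ratio was measured. The reaction ran 30 min at 20–25 °C with final 6.4 nM human GST-Syk, 250 nM biotinylated peptide, 100 μM ATP, pH 7.0 HEPES buffer, 2% DMSO.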

[3] = Tables 1-x, compounds A, read-out: sykHTRF ave IC50
[4] = Tables 2-x, thiophene compounds B
[5] = Tables 2-x, thiophene compounds B, read-out: sykHTRK ave IC50
[6] = anti-hIgE stimulation, β-Hexosaminidase index, average
[7] = HTRF, 100 μM ATP, 30 min room temperature, average, read-out: sykHTRF ave IC50

Row | Structure (SMILES) | IC50 [1, 6] [nM] | IC50 [2, 7] [nM] | also measured
1 | Cc1ccnc(Nc2cccc(-c3cnc(N(C)Cc4ccc(O)cc4)s3)n2)c1 [Compound A-471, 4-[(N-methyl-N-{5-[6-(4-methylpyridin-2-ylamino)pyridin-2-yl]thiazol-2-yl}amino)methyl]phenol] | – | – | IC50 ([1]; Tables 1-x, compounds A): 100 to 1000 nM; IC50 [2, 3]: < 100 nM
2 | CC(=O)c1ccc(-c2cccc(Nc3cc(OCCN(C)C)ccn3)n2)s1 [Compound B-82] | – | – | IC50 [1, 4]: 100 to 1000 nM; IC50 [2, 5]: 100 to 1000 nM
3 | Cc1ccnc(Nc2cccc(-c3cnc(Cc4ccc(C(=O)N5C[C@@H](O)[C@@H](O)C5)cc4)s3)n2)c1 [Compound A-244] | 100 to 1000 | 100 to 1000 | –
4 | Cc1ccnc(Nc2cccc(-c3cnc(C4CCCNC4)s3)n2)c1 (centres unmarked) [Compound A-390] | – | – | IC50 ([1]; Tables 1-x, compounds A): 100 to 1000 nM; IC50 [2, 3]: 100 to 1000 nM
5 | Cc1ccnc(Nc2cccc(-c3cnc([C@H]4CC[C@H](C(=O)N[C@H]5CC[C@H](O)CC5)CC4)s3)n2)c1 [Compound A-305] | 100 to 1000 | 100 to 1000 | –
6 | Cc1ccnc(Nc2cccc(-c3cnc(CCC4CCN(C(=O)C5CCC(O)CC5)CC4)s3)n2)c1 (centres unmarked) [Compound A-294] | > 1000 | 100 to 1000 | –
7 | CC(=O)N1CCC[C@H]1c1ncc(-c2cccc(Nc3cc(C)ccn3)n2)s1 [Compound A-48] | 100 to 1000 | 100 to 1000 | –
8 | Cc1ccnc(Nc2cccc(-c3cnc(N(C)CC(=O)NCCC(=O)O)s3)n2)c1 [Compound A-570, 3-[2-(N-methyl-N-{5-[6-(4-methylpyridin-2-ylamino)pyridin-2-yl]thiazol-2-yl}amino)acetylamino]propionic acid dihydrochloride] | – | – | IC50 ([1]; Tables 1-x, compounds A): > 1000 nM; IC50 [2, 3]: < 100 nM
9 | Cc1ccnc(Nc2cccc(-c3cc(C)c(C(=O)NC(C)(C)CO)s3)n2)c1 [Compound B-88] | – | – | IC50 [1, 4]: 100 to 1000 nM; IC50 [2, 5]: 100 to 1000 nM
10 | CNC(=O)N1CCC(c2ncc(-c3cccc(Nc4cc(C)ccn4)n3)s2)CC1 [Compound A-359] | 100 to 1000 | 100 to 1000 | –
11 | NC(=O)C1CCN(c2ncc(-c3cccc(Nc4cc(Cl)ccn4)n3)s2)CC1 [Compound A-518, 1-{5-[6-(4-chloropyridin-2-ylamino)pyridin-2-yl]thiazol-2-yl}piperidine-4-carboxamide] | – | – | IC50 ([1]; Tables 1-x, compounds A): < 100 nM; IC50 [2, 3]: < 100 nM
12 | Cc1ccnc(Nc2cccc(-c3cnc(C4CCCC(C(=O)O)C4)s3)n2)c1 (centres unmarked) [Compound A-270] | > 1000 | 100 to 1000 | –
13 | Cc1ccnc(Nc2cccc(-c3cnc(CN)s3)n2)c1 [Compound A-142] | > 1000 | 100 to 1000 | –
14 | Cc1ccnc(Nc2cccc(-c3ccc(C(=NO)C(C)C)s3)n2)c1 [Compound B-50] | – | – | IC50 [1, 4]: > 1000 nM; IC50 [2, 5]: 100 to 1000 nM
15 | Cc1ccnc(Nc2cccc(-c3sc(N4CCC(C(N)=O)CC4)nc3C)n2)c1 [Compound A-429, 1-{4-methyl-5-[6-(4-methylpyridin-2-ylamino)pyridin-2-yl]thiazol-2-yl}piperidine-4-carboxamide] | – | – | IC50 ([1]; Tables 1-x, compounds A): > 1000 nM; IC50 [2, 3]: < 100 nM
16 | Cc1ccnc(Nc2cccc(-c3cnc(CNC(=O)CC(=O)O)s3)n2)c1 [Compound A-169] | > 1000 | 100 to 1000 | –
17 | Cc1ccnc(Nc2cccc(-c3cnc([C@H](C)NC(=O)CC(=O)O)s3)n2)c1 [Compound A-123] | > 1000 | 100 to 1000 | –
18 | CC(=O)c1ccnc(Nc2cccc(-c3cnc(N4CC[C@@H](O)C4)s3)n2)c1 [Compound A-549, 1-(2-{6-[2-((R)-3-hydroxypyrrolidin-1-yl)thiazol-5-yl]pyridin-2-ylamino}pyridin-4-yl)ethanone] | – | – | IC50 ([1]; Tables 1-x, compounds A): 100 to 1000 nM; IC50 [2, 3]: < 100 nM
19 | Cc1ccnc(Nc2cccc(-c3cnc(CCc4ccc(CO)cc4)s3)n2)c1 [Compound A-159, [4-(2-{5-[6-(4-methylpyridin-2-ylamino)pyridin-2-yl]thiazol-2-yl}ethyl)phenyl]methanol] | 100 to 1000 | < 100 | –
20 | COC(=O)c1cc(Br)nc(Nc2cccc(-c3ccc(C(C)=O)s3)n2)c1 [Compound B-44] | – | – | IC50 [1, 4]: > 1000 nM; IC50 [2, 5]: > 1000 nM
21 | CC(=O)N1CCC(CCc2ncc(-c3cccc(Nc4cc(C)ccn4)n3)s2)CC1 [Compound A-259] | 100 to 1000 | 100 to 1000 | –
22 | Cc1ccnc(Nc2cccc(-c3cnc(C4CCN(S(=O)(=O)C(C)C)CC4)s3)n2)c1 [Compound A-398] | – | – | IC50 ([1]; Tables 1-x, compounds A): > 1000 nM; IC50 [2, 3]: 100 to 1000 nM
23 | Cc1ccnc(Nc2cccc(-c3ccc(CN(C)C)s3)n2)c1 [Compound B-14] | – | – | IC50 [1, 4]: 100 to 1000 nM; IC50 [2, 5]: 100 to 1000 nM
24 | Cc1ccnc(Nc2cccc(-c3cnc(CCNS(C)(=O)=O)s3)n2)c1 [Compound A-261] | 100 to 1000 | 100 to 1000 | –
25 | Cc1ccnc(Nc2cccc(-c3cnc([C@H]4CC[C@H](C(=O)NCCN5CCOCC5)CC4)s3)n2)c1 [Compound A-268, N-(2-morpholin-4-ylethyl)-trans-4-{5-[6-(4-methylpyridin-2-ylamino)pyridin-2-yl]thiazol-2-yl}cyclohexanecarboxamide] | 100 to 1000 | < 100 | –

Row | Structure (SMILES) | IC50 [1, 6] [nM] | IC50 [2, 7] [nM] | also measured
26 | CCOC(=O)CC(=O)N[C@@H](C)c1ncc(-c2cccc(Nc3cc(C)ccn3)n2)s1 [Compound A-122] | > 1000 | > 1000 | –
27 | Cc1ccnc(Nc2cccc(-c3cnc(C4CCN(C)CC4)s3)n2)c1 [Compound A-183] | > 1000 | 100 to 1000 | –
28 | Cc1ccnc(Nc2cccc(-c3cnc(C(=O)NC(CO)CO)s3)n2)c1 [Compound A-72] | > 1000 | 100 to 1000 | –
29 | Cc1ccnc(Nc2cccc(-c3ccc(C(=O)NCC(O)CO)s3)n2)c1 (centres unmarked) [Compound B-102] | – | – | IC50 [1, 4]: > 1000 nM; IC50 [2, 5]: 100 to 1000 nM
30 | COc1ccc(C[C@H](NC(C)=O)c2ncc(-c3cccc(Nc4cc(C)ccn4)n3)s2)cc1OC [Compound A-139] | > 1000 | 100 to 1000 | –
31 | Cc1ccnc(Nc2cccc(-c3cnc(CNC4CCN(C(=O)OC(C)(C)C)CC4)s3)n2)c1 [Compound A-386] | – | – | IC50 ([1]; Tables 1-x, compounds A): 100 to 1000 nM; IC50 [2, 3]: 100 to 1000 nM
32 | Cc1ccnc(Nc2cccc(-c3cnc([C@@H]4CCCC(=O)N4C)s3)n2)c1 [Compound A-364] | 100 to 1000 | 100 to 1000 | –
33 | Cc1ccnc(Nc2cccc(-c3cnc([C@H](C)O)s3)n2)c1 [Compound A-26, (S)-1-{5-[6-(4-methylpyridin-2-ylamino)pyridin-2-yl]thiazol-2-yl}ethanol] | 100 to 1000 | < 100 | –
34 | COC(=O)C(C)(C)NC(=O)c1ncc(-c2cccc(Nc3cc(C)ccn3)n2)s1 [Compound A-153] | > 1000 | 100 to 1000 | –
35 | Cc1ccnc(Nc2cccc(-c3cnc([C@H]4CC[C@H](C(=O)N5CCN(C)CC5)CC4)s3)n2)c1 [Compound A-300] | 100 to 1000 | 100 to 1000 | –
36 | CCOC(=O)CNC(=O)NCc1ncc(-c2cccc(Nc3cc(C)ccn3)n2)s1 [Compound A-252] | 100 to 1000 | 100 to 1000 | –
37 | CC(=O)N1CCC(Nc2ncc(-c3cccc(Nc4cc(C)ccn4)n3)s2)CC1 [Compound A-514, 1-(4-{5-[6-(4-methylpyridin-2-ylamino)pyridin-2-yl]thiazol-2-ylamino}piperidin-1-yl)ethanone] | – | – | IC50 ([1]; Tables 1-x, compounds A): 100 to 1000 nM; IC50 [2, 3]: < 100 nM
38 | Cc1ccnc(Nc2cccc(-c3cnc(C(O)Cc4ccc(O)cc4)s3)n2)c1 (centres unmarked) [Compound A-362, 4-(2-hydroxy-2-{5-[6-(4-methylpyridin-2-ylamino)pyridin-2-yl]thiazol-2-yl}ethyl)phenol] | 100 to 1000 | < 100 | –
39 | CCC(=O)Nc1nc(C)c(-c2cccc(Nc3cc(C)ccn3)n2)s1 [Compound A-19, N-{4-methyl-5-[6-(4-methylpyridin-2-ylamino)pyridin-2-yl]thiazol-2-yl}propionamide] | 100 to 1000 | < 100 | –
40 | CC(=O)c1ccc(-c2cccc(Nc3cc(CO)ccn3)n2)s1 [Compound B-96] | – | – | IC50 [1, 4]: > 1000 nM; IC50 [2, 5]: 100 to 1000 nM
41 | CC(=NO)c1ncc(-c2cccc(Nc3cc(C)ccn3)n2)s1 [Compound A-30, 1-{5-[6-(4-methylpyridin-2-ylamino)pyridin-2-yl]thiazol-2-yl}ethanone oxime] | 100 to 1000 | < 100 | –
42 | Cc1ccnc(Nc2cccc(-c3cnc([C@H](C)NC(=O)C4CCC(O)CC4)s3)n2)c1 (some centres unmarked) [Compound A-349] | > 1000 | 100 to 1000 | –
43 | Cc1ccnc(Nc2cccc(-c3cnc(CC(C)(C)N)s3)n2)c1 [Compound A-333] | 100 to 1000 | 100 to 1000 | –
44 | Cc1ccnc(Nc2cccc(-c3cnc([C@H]4CC[C@H](C(=O)N5CCC(N(C)C)C5)CC4)s3)n2)c1 (some centres unmarked) [Compound A-287] | 100 to 1000 | 100 to 1000 | –
45 | Cc1ccnc(Nc2cccc(-c3cnc(CNC(=O)CCO)s3)n2)c1 [Compound A-186] | 100 to 1000 | 100 to 1000 | –
46 | COc1ccnc(Nc2cccc(-c3cnc([C@H]4CC[C@H](C(N)=O)CC4)s3)n2)c1 [Compound A-339, trans-4-{5-[6-(4-methoxypyridin-2-ylamino)pyridin-2-yl]thiazol-2-yl}cyclohexanecarboxamide] | < 100 | < 100 | –
47 | Cc1ccnc(Nc2cccc(-c3cnc(C4CCN(CC(=O)O)CC4)s3)n2)c1 [Compound A-185] | > 1000 | 100 to 1000 | –
48 | Cc1ccnc(Nc2cccc(-c3cnc([C@@H]4CCC(=O)N4C)s3)n2)c1 [Compound A-373] | 100 to 1000 | 100 to 1000 | –
49 | Cc1ccnc(Nc2cccc(-c3ccc(C(C)N)s3)n2)c1 (centres unmarked) [Compound B-92] | – | – | IC50 [1, 4]: 100 to 1000 nM; IC50 [2, 5]: 100 to 1000 nM
